Laboratory results published in ChEMBL document CHEMBL4507310, “Data for DCP probe A-1211212” (2021).

Experiments:
[1] = biological target: Serine/threonine-protein kinase tousled-like 2 (Homo sapiens) (UniProt Q86UE8); conditions: Compound concentration 1000.0 nM
[2] = biological target: Serine/threonine-protein kinase BRSK1 (Homo sapiens) (UniProt Q8TDC3); conditions: Compound concentration 1000.0 nM
[3] = biological target: Peroxisome proliferator-activated receptor gamma (Homo sapiens) (UniProt P37231); assay: PPARgamma (h) Eurofins-Cerep binding assay; design: ligand concentration 5 nM; conditions: filed as agonist, Compound concentration 10.0 uM
Peroxisome proliferator-activated receptor gamma (Homo sapiens), sequence (P37231 whole entry): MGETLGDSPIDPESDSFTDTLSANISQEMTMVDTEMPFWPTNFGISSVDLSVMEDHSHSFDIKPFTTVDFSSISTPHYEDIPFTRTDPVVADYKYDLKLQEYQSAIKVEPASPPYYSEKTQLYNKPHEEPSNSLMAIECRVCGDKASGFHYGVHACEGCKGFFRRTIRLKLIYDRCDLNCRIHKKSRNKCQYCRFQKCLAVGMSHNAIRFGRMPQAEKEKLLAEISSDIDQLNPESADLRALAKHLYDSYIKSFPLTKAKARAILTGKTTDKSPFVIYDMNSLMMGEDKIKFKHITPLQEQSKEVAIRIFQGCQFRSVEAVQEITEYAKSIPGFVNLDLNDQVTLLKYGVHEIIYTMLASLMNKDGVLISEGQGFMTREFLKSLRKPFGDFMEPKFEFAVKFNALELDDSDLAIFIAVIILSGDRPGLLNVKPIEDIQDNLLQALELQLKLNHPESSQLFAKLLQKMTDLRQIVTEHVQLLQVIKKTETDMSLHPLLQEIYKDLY

[4] = biological target: Rhodopsin kinase GRK1 (Homo sapiens) (UniProt Q15835); conditions: Compound concentration 1000.0 nM
[5] = system: Phosphatidylinositol 4,5-bisphosphate 3-kinase catalytic subunit alpha isoform (Homo sapiens), P42336 [E545K]; conditions: Compound concentration 1000.0 nM
Phosphatidylinositol 4,5-bisphosphate 3-kinase catalytic subunit alpha isoform (Homo sapiens), P42336 [E545K], sequence (P42336 whole entry E545K, canonical isoform): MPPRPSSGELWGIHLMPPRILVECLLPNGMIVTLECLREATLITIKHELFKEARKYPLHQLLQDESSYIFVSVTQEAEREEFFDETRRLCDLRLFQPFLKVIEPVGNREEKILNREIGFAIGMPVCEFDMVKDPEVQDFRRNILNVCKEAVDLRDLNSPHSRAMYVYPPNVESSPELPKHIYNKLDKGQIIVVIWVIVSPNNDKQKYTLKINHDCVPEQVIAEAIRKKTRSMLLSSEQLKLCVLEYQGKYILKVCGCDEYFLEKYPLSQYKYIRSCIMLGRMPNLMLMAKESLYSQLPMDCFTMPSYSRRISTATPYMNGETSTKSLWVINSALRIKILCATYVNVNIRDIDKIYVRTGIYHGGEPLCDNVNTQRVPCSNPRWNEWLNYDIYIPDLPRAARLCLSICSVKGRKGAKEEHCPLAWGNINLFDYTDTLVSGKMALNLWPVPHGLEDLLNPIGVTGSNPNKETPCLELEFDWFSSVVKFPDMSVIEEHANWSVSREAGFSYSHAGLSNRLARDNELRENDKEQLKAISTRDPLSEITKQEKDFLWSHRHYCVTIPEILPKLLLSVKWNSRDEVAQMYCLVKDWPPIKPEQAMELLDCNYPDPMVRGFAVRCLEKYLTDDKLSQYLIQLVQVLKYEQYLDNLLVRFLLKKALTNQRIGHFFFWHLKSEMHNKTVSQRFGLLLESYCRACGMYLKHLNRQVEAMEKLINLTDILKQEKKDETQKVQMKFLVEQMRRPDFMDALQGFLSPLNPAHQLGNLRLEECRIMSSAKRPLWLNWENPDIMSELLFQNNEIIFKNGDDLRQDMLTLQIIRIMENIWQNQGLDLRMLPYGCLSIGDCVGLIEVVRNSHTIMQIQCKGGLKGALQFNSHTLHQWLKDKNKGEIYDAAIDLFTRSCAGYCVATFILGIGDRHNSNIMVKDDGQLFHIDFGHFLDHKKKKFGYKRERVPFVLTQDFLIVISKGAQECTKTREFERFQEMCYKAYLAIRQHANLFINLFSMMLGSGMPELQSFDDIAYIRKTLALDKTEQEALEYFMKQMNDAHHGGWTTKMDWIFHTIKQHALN

[6] = biological target: Death-associated protein kinase 2 (Homo sapiens) (UniProt Q9UIK4); conditions: Compound concentration 1000.0 nM
[7] = biological target: Serine/threonine-protein kinase 17A (Homo sapiens) (UniProt Q9UEE5); conditions: Compound concentration 1000.0 nM
Bcl-2-like protein 1 = Bcl-2-like protein 1 (Homo sapiens, UniProt Q07817); assay: Time-resolved fluorescence energy transfer (TR-FRET) with BCL2L1
Bcl-2-like protein 1, sequence (Q07817 whole entry): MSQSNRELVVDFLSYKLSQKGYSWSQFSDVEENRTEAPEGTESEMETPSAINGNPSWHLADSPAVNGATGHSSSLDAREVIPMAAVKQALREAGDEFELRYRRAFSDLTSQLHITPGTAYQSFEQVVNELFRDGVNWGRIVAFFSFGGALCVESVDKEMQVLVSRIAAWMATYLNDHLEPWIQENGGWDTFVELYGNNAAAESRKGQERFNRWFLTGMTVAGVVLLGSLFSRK

[8] = biological target: Ribosomal protein S6 kinase alpha-1 (Homo sapiens) (UniProt Q15418); conditions: Compound concentration 1000.0 nM
[9] = biological target: Dual specificity tyrosine-phosphorylation-regulated kinase 1A (Homo sapiens) (UniProt Q13627); conditions: Compound concentration 1000.0 nM
[10] = biological target: Tyrosine-protein kinase Tec (Homo sapiens) (UniProt P42680); conditions: Compound concentration 1000.0 nM
[11] = biological target: Inhibitor of nuclear factor kappa-B kinase subunit epsilon (Homo sapiens) (UniProt Q14164); conditions: Compound concentration 1000.0 nM
Inhibitor of nuclear factor kappa-B kinase subunit epsilon (Homo sapiens), sequence (Q14164 whole entry): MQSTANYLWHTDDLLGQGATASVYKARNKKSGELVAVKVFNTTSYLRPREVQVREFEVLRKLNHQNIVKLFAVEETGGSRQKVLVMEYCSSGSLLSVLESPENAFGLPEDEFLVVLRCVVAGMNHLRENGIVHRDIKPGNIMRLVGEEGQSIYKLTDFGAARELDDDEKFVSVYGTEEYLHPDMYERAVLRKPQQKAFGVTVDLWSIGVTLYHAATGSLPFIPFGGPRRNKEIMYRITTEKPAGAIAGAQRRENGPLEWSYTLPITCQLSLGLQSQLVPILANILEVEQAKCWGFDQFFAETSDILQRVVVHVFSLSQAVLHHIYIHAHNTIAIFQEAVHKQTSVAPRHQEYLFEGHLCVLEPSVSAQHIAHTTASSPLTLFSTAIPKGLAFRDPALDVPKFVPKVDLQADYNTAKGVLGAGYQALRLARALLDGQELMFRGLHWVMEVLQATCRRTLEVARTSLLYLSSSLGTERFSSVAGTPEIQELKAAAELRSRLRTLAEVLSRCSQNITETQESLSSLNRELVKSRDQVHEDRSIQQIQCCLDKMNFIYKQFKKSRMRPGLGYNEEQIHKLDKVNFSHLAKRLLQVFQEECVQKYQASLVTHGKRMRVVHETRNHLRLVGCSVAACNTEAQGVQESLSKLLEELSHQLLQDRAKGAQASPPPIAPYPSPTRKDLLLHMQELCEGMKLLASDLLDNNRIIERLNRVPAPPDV

[12] = biological target: NUAK family SNF1-like kinase 2 (Homo sapiens) (UniProt Q9H093); conditions: Compound concentration 1000.0 nM
NUAK family SNF1-like kinase 2 (Homo sapiens), sequence (Q9H093 whole entry, canonical isoform): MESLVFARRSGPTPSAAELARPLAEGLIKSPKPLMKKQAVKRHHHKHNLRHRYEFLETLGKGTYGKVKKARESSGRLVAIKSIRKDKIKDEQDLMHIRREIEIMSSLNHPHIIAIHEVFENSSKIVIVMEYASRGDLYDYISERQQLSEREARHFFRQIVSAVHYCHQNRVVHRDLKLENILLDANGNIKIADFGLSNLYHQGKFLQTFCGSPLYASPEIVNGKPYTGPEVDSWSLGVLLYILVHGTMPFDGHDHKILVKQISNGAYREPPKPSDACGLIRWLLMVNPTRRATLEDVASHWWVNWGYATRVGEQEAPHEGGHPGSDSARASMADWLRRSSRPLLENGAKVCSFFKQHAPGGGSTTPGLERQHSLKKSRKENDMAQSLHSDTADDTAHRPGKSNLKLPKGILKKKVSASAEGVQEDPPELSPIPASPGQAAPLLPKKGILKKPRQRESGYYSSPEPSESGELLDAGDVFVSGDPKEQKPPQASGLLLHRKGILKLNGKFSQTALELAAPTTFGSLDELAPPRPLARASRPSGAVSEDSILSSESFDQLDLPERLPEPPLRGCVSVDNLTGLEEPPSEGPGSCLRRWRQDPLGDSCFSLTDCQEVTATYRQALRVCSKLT

[13] = system: Phosphatidylinositol 4,5-bisphosphate 3-kinase catalytic subunit alpha isoform (Homo sapiens), P42336 [H1047L]; conditions: Compound concentration 1000.0 nM
[14] = biological target: Cyclin-dependent kinase 7 (Homo sapiens) (UniProt P50613); conditions: Compound concentration 1000.0 nM
Cyclin-dependent kinase 7 (Homo sapiens), sequence (P50613 whole entry): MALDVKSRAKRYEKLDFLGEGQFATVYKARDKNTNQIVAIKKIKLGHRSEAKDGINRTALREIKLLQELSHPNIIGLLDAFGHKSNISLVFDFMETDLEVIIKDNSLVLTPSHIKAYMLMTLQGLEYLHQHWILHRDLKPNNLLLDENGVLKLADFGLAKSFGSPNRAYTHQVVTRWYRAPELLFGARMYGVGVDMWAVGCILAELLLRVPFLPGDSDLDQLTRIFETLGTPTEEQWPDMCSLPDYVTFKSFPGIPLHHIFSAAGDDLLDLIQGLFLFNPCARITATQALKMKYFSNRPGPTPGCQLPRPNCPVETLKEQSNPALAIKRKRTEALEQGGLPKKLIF

[15] = biological target: Mitogen-activated protein kinase kinase kinase kinase 5 (Homo sapiens) (UniProt Q9Y4K4); conditions: Compound concentration 1000.0 nM
[16] = biological target: T1, Alpha-1B adrenergic receptor (Homo sapiens) (UniProt P35368); assay: Alpha1B (h) Eurofins-Cerep binding assay; design: ligand concentration 0.15 nM; conditions: filed as antagonist, Compound concentration 10.0 uM
T1 sequence (whole entry): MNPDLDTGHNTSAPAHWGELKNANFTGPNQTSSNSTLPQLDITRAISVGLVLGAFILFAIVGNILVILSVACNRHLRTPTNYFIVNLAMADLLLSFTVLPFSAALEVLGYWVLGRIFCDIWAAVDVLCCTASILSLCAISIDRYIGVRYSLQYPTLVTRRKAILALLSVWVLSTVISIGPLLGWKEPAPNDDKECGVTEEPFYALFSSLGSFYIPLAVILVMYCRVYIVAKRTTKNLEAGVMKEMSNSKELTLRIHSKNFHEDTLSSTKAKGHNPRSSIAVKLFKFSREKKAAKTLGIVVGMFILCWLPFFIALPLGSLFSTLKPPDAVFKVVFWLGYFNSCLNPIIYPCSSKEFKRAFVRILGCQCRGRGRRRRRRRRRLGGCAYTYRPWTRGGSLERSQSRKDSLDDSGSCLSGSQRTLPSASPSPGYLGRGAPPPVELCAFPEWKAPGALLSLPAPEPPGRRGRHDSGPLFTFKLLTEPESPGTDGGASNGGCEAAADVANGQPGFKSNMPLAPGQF

[17] = biological target: Protein-tyrosine kinase 6 (Homo sapiens) (UniProt Q13882); conditions: Compound concentration 1000.0 nM
Protein-tyrosine kinase 6 (Homo sapiens), sequence (Q13882 whole entry, looked up): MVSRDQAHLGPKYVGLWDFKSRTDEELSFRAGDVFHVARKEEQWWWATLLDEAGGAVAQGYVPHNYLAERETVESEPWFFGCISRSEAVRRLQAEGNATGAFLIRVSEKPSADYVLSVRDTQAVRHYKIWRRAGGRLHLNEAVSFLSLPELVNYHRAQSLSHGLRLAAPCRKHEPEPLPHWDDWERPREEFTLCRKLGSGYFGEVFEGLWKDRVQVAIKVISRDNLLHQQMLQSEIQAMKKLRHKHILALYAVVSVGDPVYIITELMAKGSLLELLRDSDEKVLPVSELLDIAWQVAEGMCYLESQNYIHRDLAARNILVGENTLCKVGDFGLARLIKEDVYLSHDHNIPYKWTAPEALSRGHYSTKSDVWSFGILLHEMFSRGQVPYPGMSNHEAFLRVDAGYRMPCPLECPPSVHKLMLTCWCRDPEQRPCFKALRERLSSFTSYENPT

[18] = biological target: Delta-type opioid receptor (Homo sapiens) (UniProt P41143); conditions: Compound concentration 10.0 uM
[19] = biological target: Activated CDC42 kinase 1 (Homo sapiens) (UniProt Q07912); conditions: Compound concentration 1000.0 nM
Activated CDC42 kinase 1 (Homo sapiens), sequence (Q07912 whole entry, looked up): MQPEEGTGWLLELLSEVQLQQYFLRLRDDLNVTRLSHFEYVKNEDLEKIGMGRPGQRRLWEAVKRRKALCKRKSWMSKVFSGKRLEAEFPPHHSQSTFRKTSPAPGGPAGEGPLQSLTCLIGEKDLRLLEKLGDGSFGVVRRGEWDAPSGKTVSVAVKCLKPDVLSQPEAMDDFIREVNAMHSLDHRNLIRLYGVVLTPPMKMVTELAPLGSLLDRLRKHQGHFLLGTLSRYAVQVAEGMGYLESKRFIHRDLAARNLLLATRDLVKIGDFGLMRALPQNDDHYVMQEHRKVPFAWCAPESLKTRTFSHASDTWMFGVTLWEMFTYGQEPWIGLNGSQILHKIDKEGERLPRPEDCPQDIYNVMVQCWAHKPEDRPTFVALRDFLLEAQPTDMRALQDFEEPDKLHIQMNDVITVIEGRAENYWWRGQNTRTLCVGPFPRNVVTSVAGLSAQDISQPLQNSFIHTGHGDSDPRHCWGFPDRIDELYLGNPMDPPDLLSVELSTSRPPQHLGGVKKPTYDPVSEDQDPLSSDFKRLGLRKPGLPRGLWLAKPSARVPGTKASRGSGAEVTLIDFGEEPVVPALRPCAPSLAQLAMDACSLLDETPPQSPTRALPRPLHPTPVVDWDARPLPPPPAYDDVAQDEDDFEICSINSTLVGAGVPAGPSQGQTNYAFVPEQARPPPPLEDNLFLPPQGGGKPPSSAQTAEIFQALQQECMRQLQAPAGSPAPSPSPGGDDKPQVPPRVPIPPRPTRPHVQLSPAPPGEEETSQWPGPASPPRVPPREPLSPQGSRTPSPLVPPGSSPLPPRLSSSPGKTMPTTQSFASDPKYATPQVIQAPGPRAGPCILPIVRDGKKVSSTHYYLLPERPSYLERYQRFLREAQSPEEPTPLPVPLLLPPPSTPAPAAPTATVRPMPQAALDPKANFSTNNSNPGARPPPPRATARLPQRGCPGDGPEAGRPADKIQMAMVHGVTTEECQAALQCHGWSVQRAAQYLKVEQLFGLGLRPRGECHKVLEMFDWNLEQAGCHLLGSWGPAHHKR

[20] = biological target: BMP-2-inducible protein kinase (Homo sapiens) (UniProt Q9NSY1); conditions: Compound concentration 1000.0 nM
[21] = biological target: Dual specificity testis-specific protein kinase 1 (Homo sapiens) (UniProt Q15569); conditions: Compound concentration 1000.0 nM
[22] = biological target: Adenosine receptor A2a (Homo sapiens) (UniProt P29274); assay: A2A (h) Eurofins-Cerep binding assay; design: ligand concentration 6 nM; conditions: filed as agonist, Compound concentration 10.0 uM
[23] = biological target: T2, 5-hydroxytryptamine receptor 1A (Homo sapiens) (UniProt P08908); assay: 5-HT1A (h) Eurofins-Cerep binding assay; design: ligand concentration 0.5 nM; conditions: filed as agonist, Compound concentration 10.0 uM
T2 sequence (whole entry): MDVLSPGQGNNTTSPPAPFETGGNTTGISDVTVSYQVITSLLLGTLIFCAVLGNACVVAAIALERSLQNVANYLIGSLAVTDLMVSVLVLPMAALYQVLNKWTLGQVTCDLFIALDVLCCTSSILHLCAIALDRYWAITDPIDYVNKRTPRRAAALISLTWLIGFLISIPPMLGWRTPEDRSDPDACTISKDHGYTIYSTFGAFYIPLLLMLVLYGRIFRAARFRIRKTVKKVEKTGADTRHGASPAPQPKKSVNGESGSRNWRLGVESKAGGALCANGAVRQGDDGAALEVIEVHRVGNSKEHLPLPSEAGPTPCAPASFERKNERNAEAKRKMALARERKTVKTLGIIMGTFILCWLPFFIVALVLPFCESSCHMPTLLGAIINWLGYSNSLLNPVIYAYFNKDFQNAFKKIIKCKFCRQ

[24] = biological target: Tyrosine-protein kinase Fgr (Homo sapiens) (UniProt P09769); conditions: Compound concentration 1000.0 nM
[25] = biological target: Homeodomain-interacting protein kinase 1 (Homo sapiens) (UniProt Q86Z02); conditions: Compound concentration 1000.0 nM

SMILES	residual activity [1] [%]	residual activity [2] [%]	% Inhibition of Control Specific Binding (Mean n=2) [3] [%]	residual activity [4] [%]	residual activity [5] [%]	residual activity [6] [%]	residual activity [7] [%]	IC50 (Bcl-2-like protein 1)	residual activity [8] [%]	residual activity [9] [%]	residual activity [10] [%]	residual activity [11] [%]	residual activity [12] [%]	residual activity [13] [%]	residual activity [14] [%]	residual activity [15] [%]	% Inhibition of Control Specific Binding (Mean n=2) [16] [%]	residual activity [17] [%]	inhibition [18] [%]	residual activity [19] [%]	other results
O=C(NS(=O)(=O)c1ccc(NCC2CCOCC2)c([N+](=O)[O-])c1)c1ccc(N2CCN(Cc3ccc(C(F)(F)F)cc3-c3ccc(Cl)cc3)CC2)cc1Oc1cnc2[nH]ccc2c1 [A-1210227]	100	100	9.3	100	100	85	100	> 25 µM (not active)	95	63	71	65	88	85	96	98	13.5	100	-3.92	100	residual activity [20]: 94%; residual activity [21]: 100%; % Inhibition of Control Specific Binding (Mean n=2) [22]: 1.3%; % Inhibition of Control Specific Binding (Mean n=2) [23]: -3.4%; residual activity [24]: 100%; residual activity [25]: 84%
CO[C@H]1CC[C@H](CNc2ccc(S(=O)(=O)NC(=O)c3ccc(N4CCN(CC5=C(c6ccc(Cl)cc6)CC(C)(C)CC5)CC4)cc3Oc3cnc4[nH]ccc4c3)cc2[N+](=O)[O-])CC1 [A-1211212]	87	100	28.5	72	96	75	88	0.753 µM (not active)	69	65	74	100	95	90	100	93	15.4	100	5.68	96	residual activity [20]: 94%; residual activity [21]: 100%; % Inhibition of Control Specific Binding (Mean n=2) [22]: -4.4%; % Inhibition of Control Specific Binding (Mean n=2) [23]: -2.7%; residual activity [24]: 100%; residual activity [25]: 61%
